Reference: ChEMBL document CHEMBL1138083, “Antidyslipidemic activity of furano-flavonoids isolated from Indigofera tinctoria” (2006)
The source made the active and inactive calls. No cut-off for these calls is given here.

Columns and labels:
Syrian golden hamster [1] = assay: Decrease in glycerol level in hamster at 50 mg/kg, po; type: functional, Mesocricetus auratus; parameters: scale not given: the % may be the effect or the level left
Syrian golden hamster [2] = assay: Decrease in plasma triglyceride level in hamster at 50 mg/kg, po; type: functional, Mesocricetus auratus; parameters: scale not given: the % may be the effect or the level left
Syrian golden hamster [3] = assay: Increase in HDL cholesterol level in hamster at 50 mg/kg, po; type: functional, Mesocricetus auratus
Syrian golden hamster [4] = assay: Decrease in total cholesterol level in hamster at 50 mg/kg, po; type: functional
Syrian golden hamster [5] = assay: Increase in free fatty acid in hamster at 50 mg/kg, po; type: functional, Mesocricetus auratus
Syrian golden hamster [6] = assay: Increase in HDL cholesterol to total cholesterol level in hamster at 50 mg/kg, po; type: functional, Mesocricetus auratus
Syrian golden hamster [7] = assay: Decrease in free fatty acid in hamster at 50 mg/kg, po; type: functional, Mesocricetus auratus; parameters: scale not given: the % may be the effect or the level left

SMILES | Activity (Syrian golden hamster [1]) [%] | Activity (Syrian golden hamster [2]) [%] | Activity (Syrian golden hamster [3]) [%] | Activity (Syrian golden hamster [4]; Mesocricetus auratus) | Activity (Syrian golden hamster [5]) [%] | Activity (Syrian golden hamster [6]) [%] | Activity (Syrian golden hamster [7]) [%] | Activity (Syrian golden hamster [4]) [%]
CC(=O)OC1C(C)(C)OC(=O)C12COc1ccc3c(=O)cc(-c4ccccc4)oc3c12 (stereo not drawn) | 6 | 41 | 28 | inactive | 7 | 26 | – | –
CC(=O)O[C@H]1[C@@H]2c3c(ccc4c(=O)cc(-c5ccccc5)oc34)O[C@@H]2OC1(C)C | 13 | 60 | 8 | – | – | 36 | 25 | 19
CC(=O)O[C@@H]1[C@@H]2c3c(ccc4c(=O)cc(-c5ccccc5)oc34)O[C@@H]2OC1(C)C | 13 | 60 | 8 | – | – | 36 | 25 | 19
